# Data from patent US8481459B2, “Chemical inhibitors of ethylene biosynthesis” (Academia Sinica, priority 2010, dated 2013).
# Test system: gene expression in etiolated eto1-4 seedlings
# Assay: Transcriptional profiling (ATH1 GeneChip microarray) of etiolated eto1-4 seedlings
# Type: in vivo, Arabidopsis thaliana
# Settings: ratio eto1-4 treated to eto1-4 (no treatment)
# Procedure: For chemical treatments, seeds were sown on 0.5×MS agar medium supplemented with 10 μM chemicals (AVG, compounds 9393, 9370, and 7303) or DMSO (as control). Arabidopsis seeds were stratified in the dark at 4° C. for 4 days, then germinated in the dark for 3 days at 22° C. Approximately 2,000 etiolated seedlings of the wild type or eto1-4 were used to collect tissues for preparation of total RNA in each microarray experiment with Arabidopsis ATH1 GeneChip (Affymetrix). Extraction of RNA followed an established protocol (Chang, et al. (1993) Plant Mol. Biol. Rep. 11, 113-117). Total RNA (10 μg) was used to prepare biotinylated cRNA for hybridization to ATH1 GeneChip in the experiments disclosed herein. Experiments were repeated by 2 independent biological duplicates, and candidate genes present in both experiments were selected for further analysis. The MASS method was used for data analysis and normalization by all sample medium. Candidate genes were selected by the following criteria. First, genes with 1.5-fold differential expression between the wild type and eto1-4 were selected as the master gene pool, which was then used for comparison in treatments with AVG and individual exemplary compounds. Data were presented in hierarchical clustering and Venn diagram format. Agilent GeneSpring GX and Bioconductor software were used to analyze the expression profile data. Gene Ontology descriptions were generated by GeneSpring GX and further referred to the TAR GO database. Raw data are available in the GEO database (http://www.ncbi.nlm.nih.gov/geo) with Accession no. GSE20897.
# The filtered and normalized expression data set from 22810 probes on the ATH1 Genechip was used for hierarchical clustering of gene expression profiles for comparison between AVG and the exemplary invention compounds in eto1-4. It was identified that 1,446 genes show at least 1.5-fold difference in expression between the WT and eto1-4 and used them as the master gene pool for clustering analysis (FIG. 7A). […] These genes likely contribute to the etiolated phenotype of eto1-4 by responding to elevated endogenous ethylene. To determine whether the exemplary compounds have specific r overlapping functions with AVG to suppress the eto1-4 phenotype, genes that are regulated by individual exemplary invention compounds and AVG for Venn diagram analysis were clustered (FIG. 7B). More than 63% of genes (356/561 for compound 9393; 389/561 for compound 9370; 399/561 for compound 7303; FIG. 7B) with expression associated with AVG were co-regulated by the exemplary invention compounds, which indicates an overlap function in suppression of the ethylene phenotype in eto1-4. […] Next genes co-regulated by all of the exemplary invention compounds and AVG were examined by performing a clustering analysis using the co-regulated genes identified in FIG. 7B: 356 (compound 9393 vs AVG), 389 (compound 9370 vs AVG) and 399 genes (compound 7303 vs AVG). It was uncovered that 276 genes were co-regulated by all of the exemplary invention compounds and AVG (FIG. 7C and Table 2). On the basis of GO descriptions generated by Gene Spring GX and TAIR database, the 276 genes were divided into subgroups related to their biological functions (Table 2). […] In addition, stress- and pathogenesis-related genes were among the co-regulated genes, possibly because ethylene is involved in both biotic and abiotic stresses.
# Genes (1446 non-redundant loci) were selected by 1.5-fold differential expression between eto1-4 and WT as the master pool for analysis. These genes were used for comparison between chemical treatments by AVG and the exemplary invention compounds. The finalized 276 genes that are co-regulated by AVG and all of the exemplary invention compounds are shown. Locus ID also present in Nemhauser et al. (Nemhauser, et al. (2006) Cell 126, 467-475).
structure (smiles),measurement,value
Cc1ccc(C2CC(=O)c3cnc(NC4CCCC4)nc3C2)cc1 (stereo not shown) [Compound 9370],Signal Fold Change AT1G73830 bHLH protein,0.37
same,"Signal Fold Change AT1G75500, unknown biological function",3.37
same,"Signal Fold Change AT1G76220, unknown biological function",3.55
same,"Signal Fold Change AT1G76500, photomorphogenesis, DNA-binding protein",0.42
same,Signal Fold Change AT1G76540 cell division control protein,2.53
same,"Signal Fold Change AT1G76790, unknown biological function",3.90
same,Signal Fold Change AT1G78240 dehydration-responsive protein,0.47
same,Signal Fold Change AT1G80380 phosphoribulokinase,2.14
same,"Signal Fold Change AT2G01910, microtubule nucleation, microtubule associated protein (MAP65/ASE1) protein",2.62
same,Signal Fold Change AT2G02820 myb transcription factor (MYB88),4.00
same,Signal Fold Change AT2G02850 plantacyanin,0.23
same,Signal Fold Change AT2G16580 auxin-responsive protein,2.83
same,"Signal Fold Change AT2G16990, unknown biological function",2.79
same,Signal Fold Change AT2G19590 ACC oxidase,0.28
same,"Signal Fold Change AT2G19970, unknown biological function",3.06
same,"Signal Fold Change AT2G20080, unknown biological function",3.75
same,"Signal Fold Change AT2G20670, unknown biological function",2.45
same,"Signal Fold Change AT2G21820, unknown biological function",0.85
same,Signal Fold Change AT2G21880 Ras-related GTP-binding protein,3.99
same,Signal Fold Change AT2G22860 phytosulfokines 2 (PSK2),2.67
same,Signal Fold Change AT2G24150 expressed protein (response to hormone stimulus),2.23
same,Signal Fold Change AT2G25900 zinc finger (CCCH-type) protein,1.48
same,Signal Fold Change AT2G26070 expressed protein (response to ethylene stimulus),0.28
same,Signal Fold Change AT2G26440 pectinesterase protein,0.38
same,Signal Fold Change AT2G26740 epoxide hydrolase,0.23
same,Signal Fold Change AT2G27140 heat shock protein,2.43
same,"Signal Fold Change AT2G27370, unknown biological function",2.26
same,"Signal Fold Change AT2G28305, unknown biological function",3.16
same,"Signal Fold Change AT2G28410, unknown biological function",2.92
same,Signal Fold Change AT2G29340 short-chain dehydrogenase,0.30
same,"Signal Fold Change AT2G29440, toxin catabolic process, glutathione S-transferase",0.20
same,Signal Fold Change AT2G30360 CBL-interacting protein kinase 11 (CIPK11),2.02
same,Signal Fold Change AT2G33380 calcium-binding RD20 protein,0.21
same,"Signal Fold Change AT2G33990, unknown biological function",2.72
same,"Signal Fold Change AT2G34300, unknown biological function",0.33
same,Signal Fold Change AT2G34500 cytochrome P450,4.05
same,"Signal Fold Change AT2G34510, unknown biological function",2.70
same,"Signal Fold Change AT2G34700, unknown biological function",1.03
same,Signal Fold Change AT2G35300 late embryogenesis abundant group 1 domain-containing protein,1.92
same,Signal Fold Change AT2G35710 glycogenin glucosyltransferase,2.23
same,Signal Fold Change AT2G36350 protein kinase,0.55
same,"Signal Fold Change AT2G36410, unknown biological function",2.60
same,Signal Fold Change AT2G37130 peroxidase 21,2.23
same,"Signal Fold Change AT2G38760, unknown biological function",4.10
same,"Signal Fold Change AT2G38790, unknown biological function",1.99
same,Signal Fold Change AT2G39010 aquaporin,2.05
same,"Signal Fold Change AT2G39310, unknown biological function",2.73
same,"Signal Fold Change AT2G39980, unknown biological function",0.14
same,Signal Fold Change AT2G40420 amino acid transporter,2.03
same,"Signal Fold Change AT2G41090, unknown biological function",0.19
same,"Signal Fold Change AT2G41230, unknown biological function",0.07
same,"Signal Fold Change AT2G42320, unknown biological function",0.53
same,Signal Fold Change AT2G43050 pectinesterase protein,2.35
same,Signal Fold Change AT2G43535 trypsin inhibitor,6.13
same,Signal Fold Change AT2G44110 seven transmembrane MLO protein,0.39
same,Signal Fold Change AT2G44130 kelch repeat containing F-box protein,3.39
same,Signal Fold Change AT2G47510 fumarate hydratase,0.43
same,Signal Fold Change AT2G47550 pectinesterase protein,0.39
same,"Signal Fold Change AT2G48030, unknown biological function",2.61
same,Signal Fold Change AT3G04010 glycosyl hydrolase,1.98
same,"Signal Fold Change AT3G05990, signal transduction, phosphodiesterase leucine-rich repeat protein",2.15
same,"Signal Fold Change AT3G09020, unknown biological function",3.28
same,Signal Fold Change AT3G09780 protein kinase,0.50
same,"Signal Fold Change AT3G10080, unknown biological function",2.52
same,Signal Fold Change AT3G10340 phenylalanine ammonia-lyase,1.94
same,"Signal Fold Change AT3G11550, unknown biological function",2.39
same,"Signal Fold Change AT3G12030, DNA repair, expressed protein",2.17
same,Signal Fold Change AT3G12500 basic endocexemplary inase,1.91
same,"Signal Fold Change AT3G13980, unknown biological function",6.74
same,Signal Fold Change AT3G14370 protein kinase,0.30
